From ChEMBL document CHEMBL5360518, “Discovery of a novel photoswitchable PI3K inhibitor toward optically-controlled anticancer activity” (Bioorg Med Chem, 2022)
pIC50: −log10 of the molar value. Each block holds one molecule with its values, some of them ahead of it. The source made the active and inactive calls. The calls are words filed in the database; no cut-off is given here.

Experiments:
NCI-H460 [1] = assay: (§1) Induction of apoptosis in human NCI-H460 cells harboring PI3KCA mutation and overactive PI3K pathway assessed as early apoptotic cells at 0.4 uM incubated for 48 hrs under irradiation with 365 nm UV light 2 mins once for every 8 hrs by Annexin V-FITC/PI staining based flow cytometry analysis (reference value: 2.6%); type: functional
NCI-H460 [2] = assay: as §1, with “late” for “early”, “0.08” for “0.4”, “2.27%)” for “2.6%)”; type: functional
[3] = molecular target: T1, Ribosomal protein S6 kinase (Homo sapiens) (UniProt P51812+Q9UBS0+O75676+Q15349+O75582+P23443+Q9UK32+Q15418); assay: Inhibition of S6 phosphorylation in human HGC-27 cells harboring PI3KCA mutation and overactive PI3K pathway by Western blot analysis; type: cell-based; conditions: dose 0.08-0.4 µM
[4] = molecular target: T1, Ribosomal protein S6 kinase (Homo sapiens); assay: Inhibition of S6 phosphorylation in human HGC-27 cells harboring PI3KCA mutation and overactive PI3K pathway at 0.08 to 0.4 uM compound irradiated for 5 mins at 520 nm by Western blot analysis; type: cell-based; conditions: dose 0.08-0.4 µM
NCI-H460 [5] = assay: as §1, with “late” for “early”, “2.27%)” for “2.6%)”; type: functional
[6] = molecular target: RAC-alpha serine/threonine-protein kinase (Homo sapiens) (UniProt P31749); assay: Inhibition of AKT phosphorylation at S473 residue in human HGC-27 cells harboring PI3KCA mutation and overactive PI3K pathway at 0.08 to 0.4 uM compound irradiated for 5 mins at 520 nm by Western blot analysis; type: cell-based; conditions: dose 0.08-0.4 µM
HGC-27 [7] = assay: Inhibition of cell migration in human HGC-27 cells harboring PI3KCA mutation and overactive PI3K pathway assessed as reduction in migratory ability at 0.08 to 0.4 uM incubated for 16 hrs in presence of irradiation at 365 nm UV light for 2 mins once every 8 hrs by crystal violet staining based assay; type: functional; conditions: dose 0.08-0.4 µM
NCI-H460 [8] = assay: as §1, with “0.08” for “0.4”; type: functional
[9] = molecular target: RAC-alpha serine/threonine-protein kinase (Homo sapiens) (UniProt P31749); assay: Inhibition of AKT phosphorylation at T308 residue in human HGC-27 cells harboring PI3KCA mutation and overactive PI3K pathway by Western blot analysis; type: cell-based; conditions: dose 0.08-0.4 µM
HGC-27 [10] = assay: as §1, with “HGC-27” for “NCI-H460”, “late” for “early”, “3.39%)” for “2.6%)”; type: functional
[11] = molecular target: T2, Phosphatidylinositol 4,5-bisphosphate 3-kinase catalytic subunit alpha isoform (Homo sapiens, UniProt P42336); assay: Inhibition of PI3Kalpha (unknown origin) using PIP2 as substrate incubated for 1 hr in presence of ATP under irradiation with 365 nm UV light by ADP-Glo luminescent assay
[12] = molecular target: RAC-alpha serine/threonine-protein kinase (Homo sapiens) (UniProt P31749); assay: Inhibition of AKT phosphorylation at S473 residue in human HGC-27 cells harboring PI3KCA mutation and overactive PI3K pathway by Western blot analysis; type: cell-based; conditions: dose 0.08-0.4 µM
HGC-27 [13] = assay: as §1, with “HGC-27” for “NCI-H460”, “2.26%)” for “2.6%)”; type: functional
HGC-27 [14] = assay: as §1, with “HGC-27” for “NCI-H460”, “late” for “early”, “0.08” for “0.4”, “3.39%)” for “2.6%)”; type: functional
HGC-27 [15] = assay: (§2) Antitumor activity against CM-Dil labeled human HGC-27 cells implanted in yolk sac of Albino wild type zebrafish embryos assessed as inhibition of tumor growth by measuring reduction in fluorescence density at 0.391 to 0.781 ng per fish incubated for 48 hrs in presence of irradiation with 365 nm UV light by fluorescence microscopic analysis; type: functional, cell-based; conditions: dose 0.391-0.781 ng
[16] = molecular target: RAC-alpha serine/threonine-protein kinase (Homo sapiens) (UniProt P31749); assay: Inhibition of AKT phosphorylation at T308 residue in human HGC-27 cells harboring PI3KCA mutation and overactive PI3K pathway at 0.08 to 0.4 uM compound irradiated for 5 mins at 520 nm by Western blot analysis; type: cell-based; conditions: dose 0.08-0.4 µM
HGC-27 [17] = assay: Inhibition of colony formation in human HGC-27 cells harboring PI3KCA mutation and overactive PI3K pathway assessed as reduction in number of colonies incubated for 10 days in presence of irradiation at 365 nm UV light for 2 mins once every 8 hrs by crystal violet staining based assay; type: functional, cell-based; conditions: dose 0.08-0.4 µM, time 10.0 day
HGC-27 [18] = assay: as §1, with “HGC-27” for “NCI-H460”, “0.08” for “0.4”, “2.26%)” for “2.6%)”; type: functional
NCI-H460 [19] = assay: Induction of apoptosis in human NCI-H460 cells harboring PI3KCA mutation and overactive PI3K pathway assessed as early apoptotic cells at 0.4 uM incubated for 48 hrs under dark condition by Annexin V-FITC/PI staining based flow cytometry analysis (reference value: 2.6%); type: functional
HGC-27 [20] = assay: as §2, with “dark condition” for “presence of irradiation with 365 nm UV light”; type: functional; conditions: dose 0.391-0.781 ng
[21] = molecular target: T2, Phosphatidylinositol 4,5-bisphosphate 3-kinase catalytic subunit alpha isoform; assay: Inhibition of PI3Kalpha (unknown origin) using PIP2 as substrate incubated for 1 hr in presence of ATP under dark condition by ADP-Glo luminescent assay
[22] = molecular target: RAC-alpha serine/threonine-protein kinase (Homo sapiens) (UniProt P31749); assay: Inhibition of AKT phosphorylation at T308 residue in human HGC-27 cells harboring PI3KCA mutation and overactive PI3K pathway at 0.08 to 0.4 uM compound irradiated for 2 mins at 365 nm by Western blot analysis; type: cell-based; conditions: dose 0.08-0.4 µM
HGC-27 [23] = assay: Induction of apoptosis in human HGC-27 cells harboring PI3KCA mutation and overactive PI3K pathway assessed as late apoptotic cells at 0.4 uM incubated for 48 hrs under dark condition by Annexin V-FITC/PI staining based flow cytometry analysis (reference value: 3.39%); type: functional
NCI-H460 [24] = assay: Induction of apoptosis in human NCI-H460 cells harboring PI3KCA mutation and overactive PI3K pathway assessed as late apoptotic cells at 0.08 uM incubated for 48 hrs under dark condition by Annexin V-FITC/PI staining based flow cytometry analysis (reference value: 2.27%); type: functional
HGC-27 [25] = assay: Inhibition of colony formation in human HGC-27 cells harboring PI3KCA mutation and overactive PI3K pathway assessed as reduction in number of colonies incubated for 10 days under dark condition by crystal violet staining based assay; type: functional, cell-based; conditions: dose 0.08-0.4 µM, time 10.0 day
HGC-27 [26] = assay: Induction of apoptosis in human HGC-27 cells harboring PI3KCA mutation and overactive PI3K pathway assessed as early apoptotic cells at 0.08 uM incubated for 48 hrs under dark condition by Annexin V-FITC/PI staining based flow cytometry analysis (reference value: 2.26%); type: functional
[27] = molecular target: RAC-alpha serine/threonine-protein kinase (Homo sapiens) (UniProt P31749); assay: Inhibition of AKT phosphorylation at S473 residue in human HGC-27 cells harboring PI3KCA mutation and overactive PI3K pathway at 0.08 to 0.4 uM compound irradiated for 2 mins at 365 nm by Western blot analysis; type: cell-based; conditions: dose 0.08-0.4 µM
[28] = molecular target: T1, Ribosomal protein S6 kinase (Homo sapiens); assay: Inhibition of S6 phosphorylation in human HGC-27 cells harboring PI3KCA mutation and overactive PI3K pathway at 0.08 to 0.4 uM compound irradiated for 2 mins at 365 nm by Western blot analysis; type: cell-based; conditions: dose 0.08-0.4 µM
HGC-27 [29] = assay: Induction of apoptosis in human HGC-27 cells harboring PI3KCA mutation and overactive PI3K pathway assessed as late apoptotic cells at 0.08 uM incubated for 48 hrs under dark condition by Annexin V-FITC/PI staining based flow cytometry analysis (reference value: 3.39%); type: functional
HGC-27 [30] = assay: Inhibition of cell migration in human HGC-27 cells harboring PI3KCA mutation and overactive PI3K pathway assessed as reduction in migratory ability at 0.08 to 0.4 uM incubated for 16 hrs under dark condition by crystal violet staining based assay; type: functional; conditions: dose 0.08-0.4 µM
NCI-H460 [31] = assay: Induction of apoptosis in human NCI-H460 cells harboring PI3KCA mutation and overactive PI3K pathway assessed as late apoptotic cells at 0.4 uM incubated for 48 hrs under dark condition by Annexin V-FITC/PI staining based flow cytometry analysis (reference value: 2.27%); type: functional
HGC-27 [32] = assay: Induction of apoptosis in human HGC-27 cells harboring PI3KCA mutation and overactive PI3K pathway assessed as early apoptotic cells at 0.4 uM incubated for 48 hrs under dark condition by Annexin V-FITC/PI staining based flow cytometry analysis (reference value: 2.26%); type: functional
NCI-H460 [33] = assay: Induction of apoptosis in human NCI-H460 cells harboring PI3KCA mutation and overactive PI3K pathway assessed as early apoptotic cells at 0.08 uM incubated for 48 hrs under dark condition by Annexin V-FITC/PI staining based flow cytometry analysis (reference value: 2.6%); type: functional

Sequence of RAC-alpha serine/threonine-protein kinase (Homo sapiens) (P31749 whole entry): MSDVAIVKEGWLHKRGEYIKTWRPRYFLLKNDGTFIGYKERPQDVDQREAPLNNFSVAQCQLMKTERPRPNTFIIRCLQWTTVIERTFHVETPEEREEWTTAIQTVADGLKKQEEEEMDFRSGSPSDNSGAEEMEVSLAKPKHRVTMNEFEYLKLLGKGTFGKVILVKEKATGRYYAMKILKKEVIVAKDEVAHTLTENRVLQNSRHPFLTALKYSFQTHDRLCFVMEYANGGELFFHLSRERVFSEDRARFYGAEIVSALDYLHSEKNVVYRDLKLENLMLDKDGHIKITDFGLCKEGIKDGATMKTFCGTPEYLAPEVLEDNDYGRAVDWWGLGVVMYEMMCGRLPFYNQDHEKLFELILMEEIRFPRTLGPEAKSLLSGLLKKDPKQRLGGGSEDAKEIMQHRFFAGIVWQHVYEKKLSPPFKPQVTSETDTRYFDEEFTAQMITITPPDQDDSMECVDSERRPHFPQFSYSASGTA
T2 sequence (P42336 whole entry, canonical isoform): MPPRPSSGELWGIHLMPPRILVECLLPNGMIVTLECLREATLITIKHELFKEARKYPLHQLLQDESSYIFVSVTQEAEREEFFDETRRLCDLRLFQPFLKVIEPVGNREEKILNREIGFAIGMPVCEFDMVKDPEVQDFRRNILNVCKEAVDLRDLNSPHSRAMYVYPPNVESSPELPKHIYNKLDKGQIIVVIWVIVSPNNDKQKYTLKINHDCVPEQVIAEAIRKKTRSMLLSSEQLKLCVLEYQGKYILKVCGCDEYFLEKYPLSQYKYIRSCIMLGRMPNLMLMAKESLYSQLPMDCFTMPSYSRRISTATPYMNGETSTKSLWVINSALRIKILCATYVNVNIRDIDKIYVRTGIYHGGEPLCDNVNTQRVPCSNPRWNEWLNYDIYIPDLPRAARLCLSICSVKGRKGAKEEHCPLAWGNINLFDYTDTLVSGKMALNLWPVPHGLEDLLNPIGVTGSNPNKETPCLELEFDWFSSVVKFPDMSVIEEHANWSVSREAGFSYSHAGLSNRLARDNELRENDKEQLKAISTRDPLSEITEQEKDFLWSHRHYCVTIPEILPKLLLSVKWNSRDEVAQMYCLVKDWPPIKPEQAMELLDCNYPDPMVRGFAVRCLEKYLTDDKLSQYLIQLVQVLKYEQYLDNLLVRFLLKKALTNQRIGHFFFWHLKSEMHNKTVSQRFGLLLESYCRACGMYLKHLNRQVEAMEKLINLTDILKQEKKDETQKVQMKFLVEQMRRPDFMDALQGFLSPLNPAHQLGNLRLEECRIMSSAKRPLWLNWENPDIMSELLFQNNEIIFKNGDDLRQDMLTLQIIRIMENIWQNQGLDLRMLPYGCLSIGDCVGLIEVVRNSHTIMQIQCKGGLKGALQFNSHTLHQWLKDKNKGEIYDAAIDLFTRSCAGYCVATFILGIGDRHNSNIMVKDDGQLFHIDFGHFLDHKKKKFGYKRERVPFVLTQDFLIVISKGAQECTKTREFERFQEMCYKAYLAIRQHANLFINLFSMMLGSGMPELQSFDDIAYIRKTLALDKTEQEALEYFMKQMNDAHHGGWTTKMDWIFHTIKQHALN

inhibition [3]: Dose-Dependent Effect | inhibition [4]: Active | inhibition [6]: Active | inhibition [9]: Dose-Dependent Effect | pIC50 [11]: 8.28 | inhibition [12]: Dose-Dependent Effect | inhibition [16]: Active
Compound: COc1ncc(-c2cc(Oc3ccc(/N=N\c4ccc(Oc5cc(-c6cnc(OC)c(NS(=O)(=O)c7ccc(F)cc7F)c6)cc6c(C)ncnc56)cc4)cc3)c3ncnc(C)c3c2)cc1NS(=O)(=O)c1ccc(F)cc1F
Activity (NCI-H460 [1]): 6.05% | Activity (NCI-H460 [2]): 18.8% | Activity (NCI-H460 [5]): 26.4% | inhibition (HGC-27 [7]): Active | Activity (NCI-H460 [8]): 5.44% | Activity (HGC-27 [10]): 14.28% | Activity (HGC-27 [13]): 66.74% | Activity (HGC-27 [14]): 3.6% | Activity (HGC-27 [15]): Active | inhibition (HGC-27 [17]): Dose-Dependent Effect | Activity (HGC-27 [18]): 33.67%

pIC50 [21]: 7.75 | inhibition [22]: Active | inhibition [3]: Dose-Dependent Effect | inhibition [27]: Active | inhibition [28]: Active | inhibition [9]: Dose-Dependent Effect | inhibition [12]: Dose-Dependent Effect
Compound: COc1ncc(-c2cc(Oc3ccc(/N=N/c4ccc(Oc5cc(-c6cnc(OC)c(NS(=O)(=O)c7ccc(F)cc7F)c6)cc6c(C)ncnc56)cc4)cc3)c3ncnc(C)c3c2)cc1NS(=O)(=O)c1ccc(F)cc1F
Activity (NCI-H460 [19]): 2.36% | Activity (HGC-27 [20]): Active | Activity (HGC-27 [23]): 15.95% | Activity (NCI-H460 [24]): 3.17% | inhibition (HGC-27 [25]): Dose-Dependent Effect | Activity (HGC-27 [26]): 7.28% | Activity (HGC-27 [29]): 5.11% | inhibition (HGC-27 [30]): Active | Activity (NCI-H460 [31]): 4.84% | Activity (HGC-27 [32]): 14.86% | Activity (NCI-H460 [33]): 2.69%
